Data as given in patent US20040023884A1, “Biologically active peptides from functional domains of bactericidal/permeability-increasing protein and uses thereof” (priority 1993, published 2004).
Ends that are not written are not given here.

Legend:
[1] = tested on: LPS-induced TNF production in whole blood; assay: Inhibition of LPS-induced TNF production in whole blood; format: cell-based; settings: LPS-induced TNF production in human whole blood, E. coli 0113 LPS, 4 h at 37° C.
Experimental: LPS neutralization by BPI functional domain peptides of the invention was assayed in whole blood as follows. Freshly drawn blood from healthy human donors was collected into vacutainer tubes (ACD, Rutherford, N.J.) Aliquots of blood (170 μL) were mixed with 10 μL Ca^++-, Mg^++-free PBS containing 2.5 ng/mL E. coli 0113 LPS, and with 20 μL of varying concentrations of the BPI peptides of the invention ranging in concentration from 0.5-50 μg/mL. These mixtures were then incubated for 4 h at 37° C., and then the reaction stopped by the addition of 55 μL ice-cold Ca^++-, Mg^++-free PBS, followed by centrifugation at 500×g for 7 min. Supernatants were then assayed for TNF levels using a commercial ELISA kit (Biokine™ ELISA Test, T-cell Sciences, Cambridge. MA).

E. coli strain 07-K1 = assay: Radial diffusion bactericidal assay, E. coli 07-K1; format: cell-based; settings: FIG. 10c
Experimental: BPI proteolytic fragments produced according to Example 1 were screened for bactericidal effects using rough mutant E. coli J5 bacteria in a radial diffusion assay. Specifically, an overnight culture of E. coli J5 was diluted 1:50 into fresh tryptic soy broth and incubated for 3 hours at 37° C. to attain log phase growth of the culture. Bacteria were then pelleted at 3,000 rpm for 5 minutes in a Sorvall RT6000B centrifuge (Sorvall Instruments, Newton, Conn.). 5 mL of 10 mM sodium phosphate buffer (pH 7.4) was added and the preparation was re-pelleted. […] The bacteria were diluted to 4×10^6 CFU/mL in 10 mL of molten underlayer agarose (at approximately 45° C.) and inverted repeatedly to mix in 15 mL polypropylene tubes conventionally used for this purpose.
The entire contents of such tubes were then poured into a level square petri dish and distributed evenly by rocking the dish side-to-side. […] A series of wells were then punched into the hardened agarose using a sterile 3 mm punch attached to a vacuum apparatus. The punch was sterilized with 100% alcohol and allowed to air dry prior to use to avoid contaminating the bacterial culture.
5 or 10 μL of each of the BPI fragments were carefully pipetted into each well. As a negative control, dilution buffer (pH 8.3) was added to a separate well, and rBPI23 at concentrations of 5 μg/mL and 1 μg/mL were also added as positive controls. Each plate was incubated at 37° C. for 3 hours, and then 10 mL of molten overlayer agarose (at approximately 45° C.) was added into the level petri dish, allowed to harden and incubated overnight at 37° C. […] The bacterial zones were measured with a micrometer.
Additional experiments were performed using various other bacteria as target cells to examine the range of bactericidal killing of these BPI functional domain peptides.

[2] = tested on: LPS-stimulated TNF production in THP-1 cells; assay: LPS neutralization by TNF cellular toxicity assay (THP-1 / L929 cells); format: cell-based, human; settings: 5 ng/mL LPS
From the text: A screening assay for LPS neutralization was developed using a tumor necrosis factor (TNF) cellular toxicity assay. A human monocytic cell line (THP-1; accession number TIB202, American Type Culture Collection, Rockville, Md.) grown in media supplemented with Vitamin D produce TNF upon stimulation with LPS in a dose-dependent fashion. Mouse fibroblasts (L929 cells; ATCC No.: CCL1) are sensitive to TNF-mediated cell killing, and this cell killing is also dose-dependent. Thus, the extent of cell killing of L929 cells provides a sensitive assay for the degree of TNF induction in THP-1 cells, which in turn is a sensitive indicator of the amount of free LPS in contact with the THP-1 cells. LPS binding and neutralization by BPI functional domain peptides or rBPI23 reduces the amount of free LPS in contact with THP-1 cells, which reduces the amount of TNF produced, which in turn reduces the amount of L929 cell killing in a standardized assay. Thus, the following assay provides a sensitive method for assessing the LPS binding and neutralization capacity of the BPI functional domain peptides of this invention.
THP-1 cells were grown in RPMI media (GIBCO, Long Island, N.Y.) supplemented with 10% FCS and Vitamin D in spinner culture for 3 days to a density of about 150,000 cells/mL. Cells were then plated in a round-bottomed 96-well culture plate at a density of 100,000 cells/well and incubated in RPMI media without Vitamin D or FCS in the presence of 5 ng/mL E. coli 01113 LPS for 6 hr at 37° C. Experimental control wells also contained varying amounts of rBPI23 or BPI functional domain peptides, in concentrations varying from about 0.1 μg/mL to about 100 μg/mL. After this incubation, the plates were centrifuged at about 600×g to pellet the cells, and 50 μL of the supernatant were added to a 96-well flat bottomed culture dish prepared in parallel with 50,000 L929 cells per well in 50 μL RPMI/10% FCS.
L929 cells were prepared by monolayer growth in RPMI/10% FCS media to a density of about 1 million cells per dish, then split 1:2 on the day before the experiment and allowed to grow overnight to about 70% confluence on the day of the experiment. Actinomycin D was added to the 70% confluent culture to a final concentration of 1 μg/mL 20 min prior to plating in 96-well plates. L929 cell plates were incubated in the presence of the THP-1 supernatant for about 16 hr (overnight) at 37° C. under standard conditions of mammalian cell growth. To each well was then added […] of a solution prepared by diluting 100 μL of phenazine methylsulfonate in 2 mL CellTitre 96™ AQueous solution (Promega, Madison, Wis.), containing 3-[(4,5-dimethyl)-thiozol-2-yl]-5-(3-carboxymethoxyphenyl)-2-(4-sulfonyl)-2H-tetrazolium (inner salt). The cultures were allowed to incubate for 2-4 hr at 37° C. and then analyzed spectrophotometrically to determine the optical absorbance at 490 nm (A490). Experimental results were evaluated relative to a semilog standard curve prepared with known amounts of TNF, varying from about 10 ng/mL to about […].

KSKVGWLIQLFHKKKSKVGWLIQLFHKK-NH2 (C-terminus assumed) [BPI.29]
IC50 TNF assay [1]: 5.0 µg/mL
bactericidal activity (in words) (E. coli strain 07-K1): moderate bactericidal activity
IC50 (LPS-stimulated TNF production, L929 cell killing) [2]: 2 to 3 µg/mL

KSKVGWLIQLFHKK-NH2 (C-terminus assumed) [BPI.13]
IC50 TNF assay [1]: 42 µg/mL
bactericidal activity (in words) (E. coli strain 07-K1): low levels of bactericidal activity
IC50 (LPS-stimulated TNF production, L929 cell killing) [2]: 20 µg/mL

KWKAQKRFLKKSKVGWLIQLFHKK-NH2 (C-terminus assumed) [BPI.30]
bactericidal activity (in words) (E. coli strain 07-K1): high levels of bactericidal activity
IC50 (LPS-stimulated TNF production, L929 cell killing) [2]: 6 to 7 µg/mL

KWKAQKRFLKKWKAQKRFLK-NH2 (C-terminus assumed) [BPI.7]
IC50 TNF assay [1]: Not Inhibitory
bactericidal activity (in words) (E. coli strain 07-K1): high levels of bactericidal activity
IC50 (LPS-stimulated TNF production, L929 cell killing) [2]: 30 µg/mL

KWKAAARFLKKWKAAARFLK [BPI.48]
IC50 (LPS-stimulated TNF production, L929 cell killing) [2]: 1 µg/mL
